# Test system: HBV-infected HepG2-hNTCP-C9 cells
# Assay: HBV replication in HBV-infected HepG2-hNTCP-C9 cells
# Assay type: cell-based, hepatitis B virus
# Conditions: 9 days; 20 μM Juglone or PiB, 30 μM ATRA, 6,7,4′-THIF or KPT6566, 40 μM EGCG; vs solvent
# Procedure: Figure 9 PIN1 and PIN4 Inhibition via Juglone, PiB, ATRA, 6,7,4′-THIF, KPT6566, and EGCG abrogate HBV replication in HBV-infected cells. […] HepG2-hNTCP-C9 cells were seeded and infected, as described previously, in the “Material and Methods” section. Infected cells (lanes 2–3) were treated with solvent (lane 2) or 20 μM Juglone, 20 μM PiB, 30 μM ATRA, 30 μM 6,7,4′-THIF, 30 μM KPT6566, 40 μM EGCG (lane 3) for 9 days, and lysates were subjected to SDS-PAGE and immunoblotting, NAGE, Northern blotting, and Southern blotting. The shown data are representation from three independent experiments. The statistical significance was determined by using Student’s t-test. *p < 0.05, **p < 0.005, ***p < 0.0005 relative to the corresponding control.
# HBV inoculum was harvested from HepAD38 cells for infection experiments. HepAD38 cells in DMEM plus 10% FBS, 1% PS, G418 (0.5 mg/ml), insulin (5 μg/ml), and hydrocortisone hemisuccinate (50 μM) were grown, and on every third day after passage of day 10th (till 31st), the media supernatants were collected and concentrated via 20 to 60% sucrose gradient by ultra-centrifugation (Beckman Coulter Optima L-90 K) method, as described previously ([Saeed et al., 2019], [2021]). The HBV DNAs from the pelleted precipitant were examined by Southern blotting. […] The following day, the cell media was refreshed after PBS washing and maintained in 2.5% DMSO containing media. On the 9th day post-infection, the cellular lysates were prepared and subjected to SDS-PAGE and immunoblotting, core particle immunoblotting, and Southern blot analysis. At 5 days post-infection, HBV RNA levels were determined by Northern blotting.
# Juglone (Sigma Aldrich, AG17724), PiB (Calbiochem, CAS 64005–90-9), ATRA (Sigma-Aldrich, R2625), 6,7,4′-THIF (Chem Faces, CFN90796), KPT6566 (ProbeChem, PC-61182), or EGCG (Sigma Aldrich, 989–51-5) was treated to Huh7, HepAD38, HepG2, HepG2.2.15, and HepG2-hNTCP-C9 cells. Prior to the conduct of experiments, the cytotoxic effects of Juglone, PiB, ATRA, 6,7,4′-THIF, KPT6566, or EGCG were examined via MTT assay (3-[4,5-dimethylththiazol-2-yl]-2,5-diphenyltetrazolium bromide), as described previously ([Bichko et al., 1985]; [Piracha et al., 2018], [2020]; [Saeed et al., 2019], [2021]). Briefly, selected HCC cell lines (HepG2, Huh7, HepG2.2.15, and HepAD38) in 6 cm plates were treated with Juglone (20 μM), PiB (20 μM), ATRA (30 μM), 6,7,4′-THIF (30 μM), KPT6566 (30 μM), or EGCG (40 μM) at transfection or at the time of TC removal from HepAD38 cells. Juglone (20 μM in ethanol, Sigma Aldrich, AG17724) was treated to 1.3 mer HBV-WT transfected Huh7 cells (Figure 3A) or TC-depleted HepAD38 cells (Figure 3B) or to 1.3 mer HBV-WT transfected HepG2 (Figure 3C) or HepG2.2.15 (Figure 3D) cells for 72 h. PiB (20 μM in DMSO, Calbiochem, CAS 64005-90-9) was treated for 72 h to 1.3 mer HBV-WT transfected Huh7 cells (Figure 4A) or TC-depleted HepAD38 cells (Figure 4B) or to 1.3 mer HBV-WT transfected HepG2 cells (Figure 4C) or HepG2.2.15 (Figure 4D) cells. To examine the effects on HBV replication, ATRA (30 μM in DMSO, R2625 Sigma-Aldrich) was treated for 72 h to 1.3 mer HBV-WT transfected Huh7 cells (Figure 5A) or TC-depleted HepAD38 cells (Figure 5) or to 1.3 mer HBV-WT transfected HepG2 cells (Figure 5C) or HBV replicating HepG2.2.15 (Figure 5D) cells. 6,7,4′-THIF (30 μM in DMSO, CFN90796 Chem Faces) was treated for 72 h to 1.3 mer HBV-WT transfected Huh7 cells (Figure 6A) or TC-depleted HepAD38 cells (Figure 6B) or to 1.3 mer HBV-WT transfected HepG2 cells (Figure 6C) or HBV replicating HepG2.2.15 (Figure 6D) cells. KPT-6566 (30 μM in DMSO, PC-61182 ProbeChem) was treated for 72 h to 1.3 mer HBV-WT transfected Huh7 cells (Figure 7A) or TC-depleted HepAD38 cells (Figure 7B) or to 1.3 mer HBV-WT transfected HepG2 cells (Figure 7C) or HBV replicating HepG2.2.15 (Figure 7D) cells. […]
row,SMILES,"HBV replication in infected cells (HBc, HBV transcripts, core particles, HBV DNA)"
1,"CC1=C(/C=C/C(C)=C/C=C/C(C)=C/C(=O)O)C(C)(C)CCC1 [ATRA, All-trans-retinoic acid]",restricted HBV replication
2,"O=C(O[C@@H]1Cc2c(O)cc(O)cc2O[C@@H]1c1cc(O)c(O)c(O)c1)c1cc(O)c(O)c(O)c1 [EGCG, Epigallocatechin gallate]",restricted HBV replication
3,"O=C1C=CC(=O)c2c(O)cccc21 [Juglone, 5-hydroxyl-1,4-naphthoquinone]",restricted HBV replication
4,"O=c1c(-c2ccc(O)cc2)coc2cc(O)c(O)cc12 [6,7,4′-THIF, 6,7-dihydroxy-3-(4-hydroxyphenyl)-4H-chromen-4-one]",restricted HBV replication
5,"CC(C)(C)c1ccc(S(=O)(=O)N=C2C=C(SCC(=O)O)C(=O)c3ccccc32)cc1 [KPT6566, 2-[[4-[[[4-(1,1-dimethylethyl)phenyl]sulfonyl]imino]-1,4-dihydro-1-oxo-2-naphthalenyl]thio] acetic acid]",restricted HBV replication
6,"CCOC(=O)CN1C(=O)c2ccc3c4c(ccc(c24)C1=O)C(=O)N(CC(=O)OCC)C3=O [PiB, 1,3,6,8-tetrahydro-1,3,6,8-tetraoxo-benzo [lmn][3,8] phenanthroline-2,7-diacetic acid, 2,7-diethyl ester]",restricted HBV replication
